This assay has as its target T1, mouse TRPM3a2 (mTRPM3) ion channel (Mus musculus, UniProt J9SQF3).
T1 construct: expressed in transfected cells; host or cells: flip-in HEK293
Briefly: TRPM3 ion channel driven Ca2+ uptake, Fluo-4 AM assay (PS-stimulated, overexpressing flip-in HEK293 cells). It is filed as cell-based. The following applies: PS (50 μM) stimulated, cpd 001-199. The method in brief: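 Flip-in HEK293 cells overexpressing mTRPM3α2, loaded with Fluo-4 AM, were added to wells with compound plus 50 μM pregnenolone sulfate in Ca2+-containing Krebs buffer and read immediately (ex 485/em 535 nm). Percent inhibition was scaled between PS-plus-vehicle and positive-control-inhibitor signals.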

T1 sequence (J9SQF3 1-1709 isoform J9SQF3-12): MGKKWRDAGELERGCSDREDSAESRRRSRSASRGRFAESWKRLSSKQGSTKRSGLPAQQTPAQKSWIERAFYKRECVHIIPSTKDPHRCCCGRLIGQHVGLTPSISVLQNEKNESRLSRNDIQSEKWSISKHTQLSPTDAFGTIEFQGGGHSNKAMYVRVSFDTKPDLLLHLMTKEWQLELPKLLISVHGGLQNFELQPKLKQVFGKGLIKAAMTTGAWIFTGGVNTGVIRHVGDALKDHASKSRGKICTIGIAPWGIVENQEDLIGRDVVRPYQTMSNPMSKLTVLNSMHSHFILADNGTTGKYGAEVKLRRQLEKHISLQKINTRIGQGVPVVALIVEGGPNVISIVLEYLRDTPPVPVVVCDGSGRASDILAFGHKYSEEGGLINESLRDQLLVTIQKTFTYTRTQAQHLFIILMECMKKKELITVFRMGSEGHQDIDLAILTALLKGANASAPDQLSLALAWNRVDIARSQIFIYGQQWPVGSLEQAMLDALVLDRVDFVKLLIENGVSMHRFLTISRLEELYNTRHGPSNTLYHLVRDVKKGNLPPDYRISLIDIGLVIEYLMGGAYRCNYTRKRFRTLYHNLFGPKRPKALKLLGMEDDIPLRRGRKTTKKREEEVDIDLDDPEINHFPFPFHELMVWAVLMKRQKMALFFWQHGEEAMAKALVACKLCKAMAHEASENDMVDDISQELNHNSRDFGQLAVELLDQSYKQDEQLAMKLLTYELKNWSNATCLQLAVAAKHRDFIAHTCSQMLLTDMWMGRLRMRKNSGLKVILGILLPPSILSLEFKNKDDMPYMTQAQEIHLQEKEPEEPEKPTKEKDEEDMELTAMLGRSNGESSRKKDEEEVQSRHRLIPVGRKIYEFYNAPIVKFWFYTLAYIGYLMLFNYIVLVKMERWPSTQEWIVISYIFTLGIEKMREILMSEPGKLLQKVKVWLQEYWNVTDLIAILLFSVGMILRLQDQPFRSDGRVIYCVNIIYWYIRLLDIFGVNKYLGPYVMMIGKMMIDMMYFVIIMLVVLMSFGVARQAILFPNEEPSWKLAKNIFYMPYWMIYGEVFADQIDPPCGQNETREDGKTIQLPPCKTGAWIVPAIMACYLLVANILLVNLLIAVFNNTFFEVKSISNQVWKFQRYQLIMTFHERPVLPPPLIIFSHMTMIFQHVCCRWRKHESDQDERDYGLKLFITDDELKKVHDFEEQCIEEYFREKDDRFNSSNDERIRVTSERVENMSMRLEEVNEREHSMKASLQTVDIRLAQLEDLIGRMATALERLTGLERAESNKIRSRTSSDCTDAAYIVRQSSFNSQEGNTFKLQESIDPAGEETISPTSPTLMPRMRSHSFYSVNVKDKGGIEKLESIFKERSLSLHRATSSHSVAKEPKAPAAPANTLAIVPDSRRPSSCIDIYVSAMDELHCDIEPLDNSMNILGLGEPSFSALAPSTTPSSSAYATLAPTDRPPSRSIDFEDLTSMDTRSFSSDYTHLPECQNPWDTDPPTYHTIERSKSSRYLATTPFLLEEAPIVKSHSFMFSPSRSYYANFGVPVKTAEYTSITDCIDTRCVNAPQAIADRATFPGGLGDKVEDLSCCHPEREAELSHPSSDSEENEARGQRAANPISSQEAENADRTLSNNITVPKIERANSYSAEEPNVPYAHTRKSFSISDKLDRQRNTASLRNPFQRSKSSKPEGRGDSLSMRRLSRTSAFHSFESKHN

`Cc1cncc(COc2ccc3oc(C)c(C(=O)N[C@H]4CCN(C(=O)OC(C)(C)C)C4)c3c2)c1` [cpd 073, tert-butyl (S)-3-(2-methyl-5-((5-methylpyridin-3-yl)methoxy)benzofuran-3-carboxamido)pyrrolidine-1-carboxylate] gave a half-inhibitory concentration (IC50) of 1000 to 20000 nM.

As for `Cc1oc2ccc(OCc3cccnc3C(F)(F)F)cc2c1C(=O)NC1CCNCC1(F)F` (stereo not drawn) [cpd 074, N-(3,3-difluoropiperidin-4-yl)-2-methyl-5-((2-(trifluoromethyl)pyridin-3-yl)methoxy)benzofuran-3-carboxamide], the IC50 was ≤ 1000 nM.

In turn, `Cc1oc2ccc(OCc3ncccc3C(F)(F)F)cc2c1C(=O)NC1CCNCC1(F)F` (stereo not drawn) [cpd 076, N-(3,3-difluoropiperidin-4-yl)-2-methyl-5-((3-(trifluoromethyl)pyridin-2-yl)methoxy)benzofuran-3-carboxamide] showed an IC50 of 1000 to 20000 nM.

`Cc1oc2ccc(OCc3cccc(N(C)C)n3)cc2c1C(=O)NC1CCN(C(=O)OC(C)(C)C)CC1(F)F` (stereo not drawn) [cpd 078, tert-butyl 4-(5-((6-(dimethylamino)pyridin-2-yl)methoxy)-2-methylbenzofuran-3-carboxamido)-3,3-difluoropiperidine-1-carboxylate]: the IC50 lay in the range of 1000 to 20000 nM.

For the compound `CCOC(=O)c1c(C)oc2ccc(OCC3CCN(C(=O)OC(C)(C)C)C3)cc12` (stereo not drawn) [cpd 079, tert-butyl 3-(((3-(ethoxycarbonyl)-2-methylbenzofuran-5-yl)oxy)methyl)pyrrolidine-1-carboxylate], the half-maximal inhibitory concentration (IC50) was 1000 to 20000 nM.

On to `Cc1oc2ccc(OCc3nccs3)cc2c1C(=O)NC1CCN(C(=O)OC(C)(C)C)CC1(F)F` (stereo not drawn) [cpd 087, tert-butyl 3,3-difluoro-4-(2-methyl-5-(thiazol-2-ylmethoxy)benzofuran-3-carboxamido)piperidine-1-carboxylate], for which the IC50 was 1000 to 20000 nM.

Compound `Cc1cccnc1COc1ccc2oc(C)c(C(=O)NC3CCN(C(=O)OC(C)(C)C)CC3(F)F)c2c1` (stereo not drawn) [cpd 088, tert-butyl 3,3-difluoro-4-(2-methyl-5-((3-methylpyridin-2-yl)methoxy)benzofuran-3-carbox-amido)piperidine-1-carboxylate] gave an IC50 of 1000 to 20000 nM.

As to `COc1ncccc1COc1ccc2oc(C)c(C(=O)NC3CCN(C(=O)OC(C)(C)C)CC3(F)F)c2c1` (stereo not drawn) [cpd 089, tert-butyl 3,3-difluoro-4-(5-((2-methoxypyridin-3-yl)methoxy)-2-methylbenzofuran-3-carbox-amido)piperidine-1-carboxylate], the IC50 fell in the range of 1000 to 20000 nM.

`Cc1ncsc1COc1ccc2oc(C)c(C(=O)NC3CCN(C(=O)OC(C)(C)C)CC3(F)F)c2c1` (stereo not drawn) [cpd 090, tert-butyl 3,3-difluoro-4-(2-methyl-5-((4-methylthiazol-5-yl)methoxy)benzofuran-3-carbox-amido)piperidine-1-carboxylate] yielded an IC50 of 1000 to 20000 nM.

For `COc1cccc(COc2ccc3oc(C)c(C(=O)NC4CCN(C(=O)OC(C)(C)C)CC4(F)F)c3c2)n1` (stereo not drawn) [cpd 091, tert-butyl 3,3-difluoro-4-(5-((6-methoxypyridin-2-yl)methoxy)-2-methylbenzofuran-3-carbox-amido)piperidine-1-carboxylate], the IC50 fell in the range of 1000 to 20000 nM.

As to `Cc1oc2ccc(OCc3cccnc3Cl)cc2c1C(=O)NC1CCN(C(=O)OC(C)(C)C)CC1(F)F` (stereo not drawn) [cpd 092, tert-butyl 4-(5-((2-chloropyridin-3-yl)methoxy)-2-methylbenzofuran-3-carboxamido)-3,3-difluoro-piperidine-1-carboxylate], the IC50 lay in the range of 1000 to 20000 nM.

Take `Cc1oc2ccc(OCc3cnccc3Cl)cc2c1C(=O)NC1CCN(C(=O)OC(C)(C)C)CC1(F)F` (stereo not drawn) [cpd 093, tert-butyl 4-(5-((4-chloropyridin-3-yl)methoxy)-2-methylbenzofuran-3-carboxamido)-3,3-difluoro-piperidine-1-carboxylate]: the IC50 was 1000 to 20000 nM.

Take `Cc1oc2ccc(OCc3ccc4nccn4c3)cc2c1C(=O)NC1CCN(C(=O)OC(C)(C)C)CC1(F)F` (stereo not drawn) [cpd 094, tert-butyl 3,3-difluoro-4-(5-(imidazo[1,2-a]pyridin-6-ylmethoxy)-2-methylbenzofuran-3-carbox-amido)piperidine-1-carboxylate]: the IC50 was in the range of 1000 to 20000 nM.

Turning to `Cc1oc2ccc(OCc3cncc(C(F)(F)F)c3)cc2c1C(=O)NC1CCN(C(=O)OC(C)(C)C)CC1(F)F` (stereo not drawn) [cpd 095, tert-butyl 3,3-difluoro-4-(2-methyl-5-((5-(trifluoromethyl)pyridin-3-yl)methoxy)benzofuran-3-carboxamido)piperidine-1-carboxylate], the concentration for half-maximal inhibition (IC50) lay within 1000 to 20000 nM.

`Cc1oc2ccc(OCc3ncccc3C(F)(F)F)cc2c1C(=O)NC1CCN(C(=O)OC(C)(C)C)CC1(F)F` (stereo not drawn) [cpd 096, tert-butyl 3,3-difluoro-4-(2-methyl-5-((3-(trifluoromethyl)pyridin-2-yl)methoxy)benzofuran-3-carboxamido)piperidine-1-carboxylate] showed a half-inhibitory concentration (IC50) of 1000 to 20000 nM.

The compound `Cc1oc2ccc(OCc3ccccn3)cc2c1C(=O)NC1CCN(C(=O)OC(C)(C)C)CC1(F)F` (stereo not drawn) [cpd 097, tert-butyl 3,3-difluoro-4-(2-methyl-5-(pyridin-2-ylmethoxy)benzofuran-3-carboxamido)piperidine-1-carboxylate] came in with a concentration for half-maximal inhibition (IC50) of 1000 to 20000 nM.

The compound `Cc1oc2ccc(OCc3cccnc3C(F)(F)F)cc2c1C(=O)NC1CCN(C(=O)OC(C)(C)C)CC1(F)F` (stereo not drawn) [cpd 098, tert-butyl 3,3-difluoro-4-(2-methyl-5-((2-(trifluoromethyl)pyridin-3-yl)methoxy)benzofuran-3-carboxamido)piperidine-1-carboxylate] returned a half-maximal inhibitory concentration (IC50) of 1000 to 20000 nM.

`Cc1ccncc1COc1ccc2oc(C)c(C(=O)O)c2c1` [cpd 099, 2-methyl-5-((4-methylpyridin-3-yl)methoxy)benzofuran-3-carboxylic acid] had a concentration for half-maximal inhibition (IC50) of 1000 to 20000 nM.

Compound `COc1ncccc1COc1ccc2oc(C)c(C(=O)O)c2c1` [cpd 100, 5-((2-methoxypyridin-3-yl)methoxy)-2-methylbenzofuran-3-carboxylic acid] yielded an IC50 of 1000 to 20000 nM.

Take `Cc1ncsc1COc1ccc2oc(C)c(C(=O)O)c2c1` [cpd 102, 2-methyl-5-((4-methylthiazol-5-yl)methoxy)benzofuran-3-carboxylic acid]: the concentration for half-maximal inhibition (IC50) was 1000 to 20000 nM.

In the case of `Cc1oc2ccc(OCc3cccnc3C(F)(F)F)cc2c1C(=O)n1ccc(N)n1` [cpd 178, (3-amino-1H-pyrazol-1-yl)(2-methyl-5-((2-(trifluoromethyl)pyridin-3-yl)methoxy)benzofuran-3-yl)methanone], the IC50 lay in the range of 1000 to 20000 nM.

`Cc1oc2ccc(OCc3cccnc3C(F)(F)F)cc2c1C(=O)n1cc(N)cn1` [cpd 181, (4-amino-1H-pyrazol-1-yl)(2-methyl-5-((2-(trifluoromethyl)pyridin-3-yl)methoxy)benzofuran-3-yl)methanone] registered an IC50 of 1000 to 20000 nM.

In the case of `Cc1ncsc1COc1cc(Cl)c2oc(C)c(C(=O)NC3(CO)CCOCC3)c2c1` [cpd 187, 7-chloro-N-(4-(hydroxymethyl)tetrahydro-2H-pyran-4-yl)-2-methyl-5-((4-methylthiazol-5-yl)-methoxy)benzofuran-3-carboxamide], the IC50 lay within 1000 to 20000 nM.

In turn, `Cc1oc2ccc(OCc3cccnc3C(F)(F)F)cc2c1C(=O)NCC1(N)COC1` [cpd 189, N-((3-aminooxetan-3-yl)methyl)-2-methyl-5-((2-(trifluoromethyl)pyridin-3-yl)methoxy)-benzofuran-3-carboxamide] returned an IC50 of 1000 to 20000 nM.

In general, IC50 refers to the midpoint of a concentration-inhibition curve. Read a high IC50 as lower potency.

These data come from patent US20240336602A1 (Katholieke Universiteit Leuven, priority 2020, published 2024).
